Where a name gives a salt, the structure may show the parent alone.
Legend:
human STING (hSTING) = target: T1, human STING (hSTING) (Homo sapiens, UniProt Q86WV6); test: Inhibition test of intracellular human STING (hSTING) pathway using SEAP reporter cells (HEK-Blue ISG), stimulation with Compound 3; type: cell-based; parameters: hSTING inhibitory activity: scale not given here; conditions: Compound 3 10 nM stimulation, 21 hours; for IC50: read-out: hSTING inhibitory activity
T1 construct: host or cells: HEK-Blue ISG cells (HEK293-derived SEAP reporter line)
How it was run: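 HEK-Blue ISG cells with IRF-inducible SEAP reporter, pretreated 1 h with compound (final 0.1 to 10 μM), then stimulated with Compound 3 (final 10 nM) for 21 h at 37° C. Supernatant SEAP measured colorimetrically; IC50 from log-concentration regression, normalized to stimulated (100%) and unstimulated (0%) controls.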

[1] = system: STING activation (IFN-β production in THP-1 cells); test: Human IFN-β production inhibition test by cGAMP stimulation in THP-1 cells; type: cell-based; parameters: IFN-β bioinhibitory activity: scale not given here; conditions: 2'3'-cGAMP transfection, 18 hours, IFN-β ELISA; for IC50: Homo sapiens, read-out: IFN-β bioinhibitory activity
How it was run: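 PMA-primed (100 nM, overnight) THP-1 cells pretreated 1 h with compound at 0.001 to 1 μM (0.1% DMSO), then transfected with 0.12 μg/well 2′3′-cGAMP and cultured 18 hours. Supernatant IFN-β measured by ELISA; IC50 by regression against log concentration, normalised to cGAMP-only (100%) and unstimulated (0%) controls.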

T1 sequence (Q86WV6 whole entry H232R): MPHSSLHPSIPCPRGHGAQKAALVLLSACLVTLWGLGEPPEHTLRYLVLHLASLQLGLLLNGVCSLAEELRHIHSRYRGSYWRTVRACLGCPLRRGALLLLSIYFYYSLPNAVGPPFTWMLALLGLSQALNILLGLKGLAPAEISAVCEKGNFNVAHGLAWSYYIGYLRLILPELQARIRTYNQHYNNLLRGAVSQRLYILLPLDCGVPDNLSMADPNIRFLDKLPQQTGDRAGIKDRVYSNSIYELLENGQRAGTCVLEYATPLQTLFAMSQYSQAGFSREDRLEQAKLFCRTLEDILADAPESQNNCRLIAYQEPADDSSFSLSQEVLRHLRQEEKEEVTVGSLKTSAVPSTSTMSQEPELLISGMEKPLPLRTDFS

Compound | hSTING inhibitory activity (human STING (hSTING)) | IC50 [1] [µM] | IC50 (human STING (hSTING)) [µM] | IFN-β bioinhibitory activity [1]
Cn1c(Nc2c[nH]c3ccc(Cl)cc23)nc2cc(F)ccc21 [Embodiment 185, N-(5-Chloro-1H-indol-3-yl)-5-fluoro-1-methyl-1H-benzo[d]imidazol-2-amine formate] | * * | – | – | * * *
Clc1ccc2[nH]cc(Nc3nc4cc(Br)ccc4[nH]3)c2n1 [Embodiment 95, 5-bromo-N-(5-chloro-1H-pyrrolo [3,2-b]pyridin-3-yl)-1H-benzo [d]imidazol-2-amine formate] | * * | – | – | * * *
CN(C)n1c(Nc2c[nH]c3ccc(Cl)cc23)nc2cc(C(F)(F)F)cc(F)c21 [Embodiment 237, N2-(5-Chloro-1H-indol-3-yl)-7-fluoro-N1,N1-dimethyl-5-(trifluoromethyl)-1H-benzo[d] imidazole-1,2-diamine] | * * * | – | – | * *
CC(C)n1c(Nc2c[nH]c3ccc(Cl)cc23)nc2cc(C(F)(F)F)cc(F)c21 [Embodiment 242, N-(5-Chloro-1H-indol-3-yl)-7-fluoro-1-isopropyl-5-(trifluoromethyl)-1H-benzo[d]imidazol-2-amine] | * * * | – | – | * *
Clc1ccc2[nH]cc(Nc3nc4cc(OC5CCCCC5)ccc4[nH]3)c2n1 [Embodiment 120, N-(5-Chloro-1H-pyrrolo[3,2-b]pyridin-3-yl)-5-(cyclohexyloxy)-1H-benzo[d]imidazol-2-amine formate] | * * * | 0.1 to 1 | – | –
C=Cc1ccc2[nH]cc(Nc3nc4ccc(Oc5ccc(F)cc5)cc4n3C3CC3)c2n1 [Embodiment 188, 1-Cyclopropyl-6-(4-fluorophenoxy)-N-(5-vinyl-1H-pyrrolo[3,2-b]pyridin-3-yl)-1H-benzo[d]imidazole-2-amine] | * * | 0.1 to 1 | – | –
Cn1c(Nc2c[nH]c3ncc(Cl)cc23)nc2ccc(Oc3ccccc3)cc21 [Embodiment 108, N-(5-Chloro-1H-pyrrolo[2,3-b]pyridin-3-yl)-1-methyl-6-phenoxy-1H-benzo[d]imidazol-2-amine] | * * | ≥ 1 | – | –
C=Cc1ccc2[nH]cc(Nc3nc4cc(Oc5ccccc5)ccc4[nH]3)c2n1 [Embodiment 101, 5-phenoxy-N-(5-vinyl-1H-pyrrolo [3,2-b]pyridin-3-yl)-1H-benzo [d]imidazol-2-amine] | * * * | – | – | * *
FC(F)(F)c1ccc2[nH]c(Nc3c[nH]c4ccc(Br)cc34)nc2c1 [Example 8, N-(5-bromo-1H-indol-3-yl)-5-(trifluoromethyl)-1H-benzo[d]imidazol-2-amine] | * * | – | – | * *
Cc1ccc2[nH]cc(Nc3nc4cc(Oc5ccccc5)ccc4[nH]3)c2n1 [Embodiment 53, N-(5-methyl-1H-pyrrolo[3,2-b]pyridin-3-yl)-5-phenoxy-1H-benzo[d]imidazol-2-amine] | * * | ≥ 1 | – | –
N#Cc1ccc2[nH]c(Nc3c[nH]c4ccc(Br)cc34)nc2c1 [Example 19, 2-[(5-bromo-1H-indol-3-yl)amino]-1H-benzo[d]imidazole-5-carbonitrile] | * * | 0.1 to 1 | – | –
Fc1cc(C(F)(F)F)cc2nc(Nc3c[nH]c4ccc(Cl)cc34)[nH]c12 [Embodiment 267, N-(5-Chloro-1H-indol-3-yl)-7-fluoro-5-(trifluoromethyl)-1H-benzo [d]imidazol-2-amine] | * * | 0.1 to 1 | – | –
CC(C)Oc1ccc2[nH]c(Nc3c[nH]c4ccc(Cl)nc34)nc2c1 [Embodiment 158, N-(5-Chloro-1H-pyrrolo[3,2-b]pyridin-3-yl)-5-isopropoxy-1H-benzo [d]imidazol-2-amine] | * * | 0.1 to 1 | – | –
FC(F)(F)c1ccc2c(c1)nc(Nc1c[nH]c3ccc(Cl)nc13)n2C1CC1 [Embodiment 186, N-(5-Chloro-1H-pyrrolo[3,2-b]pyridin-3-yl)-1-cyclopropyl-5-(trifluoromethyl)-1H-benzo[d] imidazol-2-amine] | – | 0.1 to 1 | 1 to 10 | –
Brc1ccc2[nH]cc(Nc3nc4cc(Oc5ccccc5)ccc4[nH]3)c2c1 [Example 3, N-(5-bromo-1H-indol-3-yl)-5-phenoxy-1H-benzo[d]imidazol-2-amine] | * * | – | – | * *
C#CCn1c(Nc2c[nH]c3ccc(Cl)cc23)nc2cc(C(F)(F)F)ccc21 [Embodiment 214, N-(5-Chloro-1H-indol-3-yl)-1-(pro-2-yl)-5-(trifluoromethyl)-1H-benzo[d]imidazol-2-amine] | * * * | – | – | * * *
FC(F)(F)c1ccc2c(c1)nc(Nc1c[nH]c3ccc(Br)cc13)n2C1CC1 [Embodiment 224, N-(5-bromo-1H-indol-3-yl)-1-cyclopropyl-5-(trifluoromethyl)-1H-benzo[d]imidazol-2-amine] | * * * | – | – | * *
COCCn1c(Nc2c[nH]c3ccc(Cl)nc23)nc2cc(C(F)(F)F)ccc21 [Embodiment 178, N-(5-chloro-1H-pyrrolo[3,2-b]pyridin-3-yl)-1-(2-methoxyethyl)-5-(trifluoromethyl)-1H-benzo[d]imidazol-2-amine] | – | ≥ 1 | ≥ 10 | –
CCc1ccc2[nH]cc(Nc3nc4ccc(Oc5ccc(F)cc5)cc4n3C3CC3)c2n1 [Embodiment 190, 1-Cyclopropyl-N-(5-ethyl-1H-pyrrolo[3,2-b]pyridin-3-yl)-6-(4-fluorophenoxy)-1H-benzo[d]imidazole-2-amine formate] | – | ≥ 1 | 1 to 10 | –
COc1ccc2[nH]c(Nc3c[nH]c4ccc(Br)cc34)nc2c1 [Example 6, N-(5-bromo-1H-indol-3-yl)-5-methoxy-1H-benzo[d]imidazol-2-amine] | * * | 0.1 to 1 | – | –
CN(C)c1ccc(Oc2ccc3[nH]c(Nc4c[nH]c5ccc(Br)nc45)nc3c2)cc1 [Embodiment 64, N-(5-bromo-1H-pyrrolo[3,2-b]pyridin-3-yl)-5-[4-(dimethylamino)phenoxy]-1H-benzo[d]imidazol-2-amine] | * * | 0.1 to 1 | – | –
OCCn1c(Nc2c[nH]c3ccc(Cl)cc23)nc2cc(C(F)(F)F)cc(F)c21 [Embodiment 236, 2-{2-[(5-chloro-1H-indol-3-yl)amino]-7-fluoro-5-(trifluoromethyl)-1H-benzo[d]imidazol-1-yl}ethane-1-oar] | * * * | – | – | * *

Continued, in another order:

hSTING inhibitory activity (human STING (hSTING)) | IC50 [1] [µM] | IC50 (human STING (hSTING)) [µM] | Compound | IFN-β bioinhibitory activity [1]
* * | – | – | Cn1c(Nc2c[nH]c3ccc(Cl)nc23)nc2cc(C(F)(F)F)ccc21 [Embodiment 47, N-(5-Chloro-1H-pyrrolo[3,2-b]pyridin-3-yl)-1-methyl-5-(trifluoromethyl)-1H-benzo[d] imidazol-2-amine] | * *
* * * | – | – | C#CCn1c(Nc2c[nH]c3ccc(Cl)cc23)nc2cc(C(F)(F)F)cc(F)c21 [Embodiment 241, N-(5-Chloro-1H-indol-3-yl)-7-fluoro-1-(prop-2-yn-1-yl)-5-(trifluoromethyl)-1H-benzo[d] imidazole-2-amine] | * *
* * * | 0.1 to 1 | – | COCCn1c(Nc2c[nH]c3ccc(Br)nc23)nc2ccc(Oc3ccccc3)cc21 [Embodiment 93, N-(5-bromo-1H-pyrrolo[3,2-b]pyridin-3-yl)-1-(2-methoxyethyl)-6-phenoxy-1H-benzo[d]imidazol-2-amine] | –
– | 0.1 to 1 | 1 to 10 | COc1ccc2c(c1)nc(Nc1c[nH]c3ccc(Cl)nc13)n2C [Embodiment 159, N-(5-Chloro-1H-pyrrolo[3,2-b]pyridin-3-yl)-5-methoxy-1-methyl-1H-benzo[d]imidazol-2-amine] | –
* * * | – | – | Cn1c(Nc2c[nH]c3ccc(Cl)cc23)nc2cc(OC(F)(F)F)ccc21 [Embodiment 246, N-(5-Chloro-1H-indol-3-yl)-1-methyl-5-(trifluoromethoxy)-1H-benzo[d]imidazol-2-amine] | * * *
* * * | 0.1 to 1 | – | Fc1ccc2[nH]c(Nc3c[nH]c4ccc(Br)cc34)nc2c1 [Embodiment 33, N-(5-bromo-1H-indol-3-yl)-5-fluoro-1H-benzo[d]imidazol-2-amine] | –
* * * | – | – | CCn1c(Nc2c[nH]c3ccc(Cl)cc23)nc2cc(OC(F)(F)F)ccc21 [Embodiment 251, N-(5-Chloro-1H-indol-3-yl)-1-ethyl-5-(trifluoromethoxy)-1H-benzo [d]imidazol-2-amine] | * *
* * * | – | – | CCn1c(Nc2c[nH]c3ccc(Cl)cc23)nc2cc(C(F)(F)F)cc(F)c21 [Embodiment 240] | * *
* * | 0.1 to 1 | – | Fc1cnc2[nH]cc(Nc3nc4cc(Oc5ccccc5)ccc4[nH]3)c2c1 [Embodiment 72, N-(5-fluoro-1H-pyrrolo[2,3-b]pyridin-3-yl)-5-phenoxy-1H-benzo [d]imidazol-2-amine formate] | –

From patent publication US20240279205A1, “NOVEL BENZIMIDAZOLE DERIVATIVE” (Carna Biosciences, Inc., priority 2020, published 2024)
